Measurements taken from patent publication US10857197B2, “Treatment of HMGB1-mediated inflammation” (The Feinstein Institue for Medical Research, priority 2014, dated 2020).
Residue numbers refer to the chain shown, from its start. Names may count otherwise.

Key:
[1] = test system: HMGB1-induced TNF release, primary human macrophages; assay: HMGB1-induced TNF release in primary human macrophages (ELISA); assay type: cell-based; conditions: HMGB1 1 μg/ml, 16 h
[2] = test system: thioglycollate-elicited peritoneal mouse macrophages; assay: HMGB1-induced cytokine release, mouse peritoneal macrophages (cytokine Ab array); assay type: cell-based; conditions: HMGB1 1 μg/ml, peptide 50 μg/ml, 16 h
Procedure: (§1) Cell isolation and culture. […] […]. TNF released was measured by ELISA.
(§2) Cytokine and NF-κB measurements. […] Twenty two cytokines or chemokines were determined simultaneously.

[3] = test system: LPS-stimulated primary human macrophages; assay: LPS-stimulated cytokine/chemokine release, primary human macrophages (cytokine Ab array); assay type: cell-based; conditions: LPS 2 ng/ml, peptide 50 μg/ml, 16 h
Procedure: as §2

[4] = test system: LPS-induced systemic cytokine levels; assay: LPS injection in mice, serum TNF and IL-6; assay type: in vivo; conditions: LPS 8 mg/kg i.p., peptide 500 μg/mouse i.p., 90 minutes
Procedure: as §2

[5] = Acetaminophen (APAP) hepatic toxicity model; assay type: in vivo, mouse
Procedure: For the acetaminophen (APAP) hepatic toxicity model, three sets of experiments were conducted. In all experiments, mice were routinely fasted overnight and received intraperitoneal (IP) injection of APAP (350 mg/kg for survival studies and 400 mg/kg for serum measurements when mice were euthanized at 24 h post-APAP) as previous described. […] Mice had APAP injection and were euthanized 24 hours later (for serum measurements) or monitored for 2 weeks (for survival studies). […] In survival experiments, mice had APAP injection and received anti-HMGB1 antibodies (5 μg/mouse, IP, once daily for 4 days followed by two additional doses once every other day beginning at 2 hours post-APAP). Irrelevant non-immune IgG was used as controls. For serum measurements, mice subjected to APAP injection and received injection of monoclonal anti-HMGB1 antibody (5 μg/mouse, injected IP at 2 and 7 hours post-APAP) and euthanized at 24 hours post-APAP. The third set of experiments was used to assess the efficacy of P5779 in APAP model in wild type mice. […] Hepatotoxicity was determined by serum levels of glutamate dehydrogenase (GLDH), alanine aminotransferease (ALT) and aspartate aminotransferase (AST) as described previously. Antoine et al., Hepatology 58:777-787 (2013).
Histological evaluation. […] sections were stained with hematoxylin and eosin.

[6] = Cecal ligation and puncture (CLP) sepsis model; assay type: in vivo; conditions: 50 or 500 μg/mouse i.p. once a day for 4 days from 24 h after CLP
Source text: Survival was monitored for 2 weeks.

[7] = test system: Poly I:C, S100A12, LPS, PGN and CpG DNA-mediated TNF release, primary human macrophages; conditions: 16 h
[8] = 500 μg/mouse i.p. at surgery, 6 h
human TLR4 = human TLR4 (Homo sapiens, UniProt O00206); assay: SPR binding to TLR4 coated on the chip
HMGB1 = target: T1, HMGB1 (Rattus norvegicus, UniProt P63159); assay: SPR binding of peptide to HMGB1 coated on the chip; conditions: absence of MD2
T1 sequence (P63159 1-215): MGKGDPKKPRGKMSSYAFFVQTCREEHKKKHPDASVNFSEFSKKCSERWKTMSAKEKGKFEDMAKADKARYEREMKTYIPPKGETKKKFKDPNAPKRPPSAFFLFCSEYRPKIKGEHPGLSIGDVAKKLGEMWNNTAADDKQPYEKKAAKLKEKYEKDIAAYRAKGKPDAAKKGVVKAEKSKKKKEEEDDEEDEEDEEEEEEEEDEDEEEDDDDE

human MD2 = target: T2, human MD2 (Homo sapiens, UniProt Q9Y6Y9); assay: Surface plasmon resonance (BIAcore) binding to human MD2; conditions: SPR
T2 sequence (Q9Y6Y9 19-160): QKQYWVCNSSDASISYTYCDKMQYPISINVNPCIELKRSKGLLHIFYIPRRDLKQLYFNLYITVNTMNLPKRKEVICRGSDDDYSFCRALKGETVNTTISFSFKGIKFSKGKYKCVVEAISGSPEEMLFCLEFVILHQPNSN

RAW 264.7 cells = assay: TNF release from RAW 264.7 cells stimulated with HMGB1 isoforms; assay type: cell-based, murine; conditions: 1 μg/ml, 16 h
Procedure: as §1, §2

Sequence of human TLR4 (O00206 24-839): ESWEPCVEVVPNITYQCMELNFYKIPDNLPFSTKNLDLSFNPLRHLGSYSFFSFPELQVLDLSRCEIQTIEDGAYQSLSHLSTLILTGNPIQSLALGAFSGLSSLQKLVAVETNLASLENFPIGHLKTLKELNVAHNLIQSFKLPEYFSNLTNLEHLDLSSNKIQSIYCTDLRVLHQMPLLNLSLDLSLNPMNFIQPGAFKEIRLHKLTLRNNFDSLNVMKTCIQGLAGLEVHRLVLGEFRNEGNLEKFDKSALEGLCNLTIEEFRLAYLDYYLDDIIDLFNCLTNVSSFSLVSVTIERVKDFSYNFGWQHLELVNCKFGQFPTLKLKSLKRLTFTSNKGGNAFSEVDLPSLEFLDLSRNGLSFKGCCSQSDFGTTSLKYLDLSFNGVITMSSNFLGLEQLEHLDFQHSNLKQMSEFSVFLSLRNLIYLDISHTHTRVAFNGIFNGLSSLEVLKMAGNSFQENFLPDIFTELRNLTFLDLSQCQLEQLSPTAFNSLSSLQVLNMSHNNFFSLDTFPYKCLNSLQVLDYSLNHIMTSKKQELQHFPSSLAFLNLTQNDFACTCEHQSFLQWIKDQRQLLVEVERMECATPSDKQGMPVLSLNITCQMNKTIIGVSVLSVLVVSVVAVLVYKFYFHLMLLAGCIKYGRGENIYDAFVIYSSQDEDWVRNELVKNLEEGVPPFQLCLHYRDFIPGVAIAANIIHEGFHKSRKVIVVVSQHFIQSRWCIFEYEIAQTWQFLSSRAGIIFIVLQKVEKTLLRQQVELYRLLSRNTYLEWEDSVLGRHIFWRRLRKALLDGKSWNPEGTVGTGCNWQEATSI

In the case of `N[C@@H](Cc1ccccc1)C(=O)N[C@@H](CO)C(=O)N[C@@H](CO)C(=O)N[C@@H](CCC(=O)O)C(=O)O` [P5779, FSSE], the “inhibition of HMGB1-induced TNF release (qualitative)” value [1] is reported as “significantly inhibited”, the “HMGB1-induced release of IL-6, IL-12p40/p70, RANTES and MCP-1” value [2] is reported as “significantly reduced” and the “LPS-stimulated cytokine/chemokine release in vitro” value [3] is reported as “did not inhibit”. For the same molecule, the “LPS-induced systemic cytokine levels (serum TNF, IL-6)” value [4] was “failed to attenuate”, the “survival after APAP” value ([5]; 500 μg/mouse i.p. once a day for 5 days, 2 weeks) was “improved survival” and the “APAP-induced elevation of hepatic serum enzymes (AST, ALT), TNF, liver necrosis” value ([5]; 50 or 500 μg/mouse i.p. at 2 and 7 h post-APAP, 24 h) was “dose-dependently reduced”. For the same molecule, the “survival after CLP vs scrambled peptide” value [6] was “significantly and dose-dependently improved survival rates”, the “inhibition of TNF release mediated by Poly I:C, S100A12, LPS, PGN and CpG DNA” value [7] was “failed to inhibit” and the “hepatic serum enzyme release (AST, ALT) and neutrophil infiltration” value [8] was “significantly blunted”. The “binding to TLR4” value (human TLR4; SPR, absence of MD2) was “failed to bind” and the “binding to HMGB1” value (HMGB1) was “failed to bind”.

With “SFSE (MD2 binding protein) [control peptide, reference compound]” the “inhibition of HMGB1-induced TNF release (qualitative)” value [1] was “abolished the capacity to inhibit HMGB1-induced TNF release” and the “MD2-binding capacity (qualitative)” value (human MD2; peptides 100 nM) was “abolished the MD2-binding capacity”.

In the case of “disulfide HMGB1: recombinant HMGB1 with Cys23-Cys45 disulfide bond and reduced Cys106”, the “TNF release induced by HMGB1 isoform” value (RAW 264.7 cells) is reported as “induced TNF secretion”, the “HMGB1 binding to TLR4 in the absence of MD2” value (human TLR4; disulfide HMGB1 100 nM) is reported as “incapable of directly binding to TLR4” and the Kd (human MD2; read-out: apparent Kd of HMGB1 binding to MD2, MD2 or HMGB1 immobilized on the chip) is reported as 12 nM.

B1: H2S-modified HMGB1: HMGB1 with cysteine modified by H2S (NaSH) (protein, UniProt P09429 1-215, looked up)
High mobility group protein B1: T1 sequence (P63159 1-215) with D189E, E202D
modifications: cysteine modified by H2S
In the case of B1, the “TNF release induced by HMGB1 isoform” value (RAW 264.7 cells) is reported as “failed to induce TNF release”.

B2: sulfonyl HMGB1: HMGB1 with all cysteines terminally oxidized (protein)
chain: T1 sequence (P63159 1-215)
With B2 the “TNF release induced by HMGB1 isoform” value (RAW 264.7 cells) was “failed to induce TNF release”.

B3: fully reduced HMGB1: HMGB1 with all cysteine residues reduced (protein)
chain: T1 sequence (P63159 1-215)
For B3, the “TNF release induced by HMGB1 isoform” value (RAW 264.7 cells) was “failed to induce TNF release”.
